Data from patent US20180092908A1, “SMALL MOLECULE OXIDIZERS OF PDI AND THEIR USE” (THE TRUSTEES OF COLUMBIA UNIVERSITY IN THE CITY OF NEW YORK, priority 2015, published 2018).
≈ marks a conversion by molar mass, not a printed value. Where two headings read alike, the source gives them in different places. Values belong to the compound of their own block, whether it stands above or below them.

Key:
[1] = Mouse microsome stability assay; format: in vitro ADME; details: compound 0.5 μM
Protocol: At 0, 5, 15, 30 and 45 minute intervals, an aliquot was taken and quenched with acetonitrile (ACN) containing internal standard. No-cofactor controls at 45 minutes were prepared. Following completion of the experimentation, the samples were analyzed by LC-MS/MS. […] C=initial×exp (−k×t). Intrinsic clearance (CLint) was calculated as liver clearance from the half-life using the following equation: CLint=k×(ml incubation/0.5 mg protein)×(52.5 mg protein/g liver). Results were reported as peak area ratios of analyte to internal standard. The intrinsic clearance (CLint) was determined from the first order elimination constant by non-linear regression. The microsome stability assay, plasma stability assay, and plasma protein binding assay were each performed by Alliance Pharma, Inc. (Malvern, Pa.).

[2] = system: PC12 mHTT^Q103 cells; details: Hoffstrom et al., 2010; read-out: EC50, rescue of PC12 mHTT^Q103 cells (previously identified inhibitor); cited from earlier work
[3] = target: T1, recombinant catalytic a domain of human PDI A1 (PDIa) (Homo sapiens, UniProt P07237); experiment: Insulin aggregation assay (PDIa reductase activity); format: biochemical; details: for Insulin Assay (either active or inactive): Table 5
T1 construct: made in house; host or cells: Escherichia coli BL21-Gold (DE3)
T1 sequence (P07237 with tags, fused parts or gaps): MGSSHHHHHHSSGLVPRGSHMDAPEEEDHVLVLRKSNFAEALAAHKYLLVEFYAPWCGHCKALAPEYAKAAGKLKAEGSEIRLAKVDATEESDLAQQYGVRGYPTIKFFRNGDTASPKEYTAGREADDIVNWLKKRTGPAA
Description: In this insulin aggregation assay (Xu et al., 2012; Jasuja et al., 2012; Khan et al., 2011; Smith et al., 2004), PDIa reduced the two disulfide bonds between the α- and β-chains of insulin, causing the β-chain to aggregate and precipitate, resulting in an increase in absorbance at 650 nm.
To investigate the mode of binding further and to determine whether the binding was reversible or irreversible, the recovery of enzymatic activity of PDIa after dilution of pre-formed concentrated PDIa-LOC14 complexes was analyzed. LOC14 (750 μM) was incubated with a concentrated solution of PDIa (500 μM). The mixture was then diluted 100-fold and PDI's enzymatic activity was measured in the insulin reduction assay. As a control, the same procedure was also performed on the sample containing an irreversible inhibitor, 16F16 (16F16 at 750 μM and PDIa at 500 μM). […] This illustrated that unlike 16F16, LOC14 binding to PDIa is reversible.

[4] = target: T1, recombinant catalytic a domain of human PDI A1 (PDIa); experiment: as above; format: biochemical; details: compound 750 μM
[5] = target: T2, human catalytic PDI A1 a domain (PDIa) (Homo sapiens, UniProt P07237); experiment: Isothermal titration calorimetry (ITC) binding to PDIa; details: PDIa
T2 construct: made in house; host or cells: Escherichia coli BL21-Gold (DE3)
T2 sequence (P07237 with tags, fused parts or gaps): as above

[6] = Solubility; details: for solubility: Table 4
[7] = Mouse plasma stability assay; format: in vitro ADME; details: compound 1.0 μM
Protocol: Test compound (1 μM) was incubated at 37° C. for up to 120 minutes in mouse plasma. At 0, 15, 30, 60, and 120 minute intervals an 100 μL aliquot was taken and quenched with 200 μL acetonitrile (ACN) containing internal standard. Following completion of the experimentation, the samples were analyzed by LC-MS/MS. The half-life (t1/2) was calculated using the following equation: t1/2=0.693/k, where, k is the elimination rate constant of test compounds obtained by fitting the data to the equation: C=initial×exp (−k×t). Results were reported as peak area ratios of analyte to internal standard.
The microsome stability assay, plasma stability assay, and plasma protein binding assay were each performed by Alliance Pharma, Inc. (Malvern, Pa.).

[8] = system: PC12 mHTT^Q103 cells; experiment: Rescue of PC12 cells from mHTT^Q103 induced cell death (Alamar blue viability); format: cell-based; details: Rattus norvegicus
Description: PC12 mHTT^Q103 cells were a gift from Erik S. Schweitzer (UCLA School of Medicine, Los Angeles, Calif.). These cells are stably transfected with the first exon of human HTT gene containing the pathogenic 103 CAG/CAA repeat expansion, under the control of the ecdysteroid promoter (Aiken et al., 2004). The plasmid also contains a Bombyx mori ecdysone receptor gene fused at N-terminal with VP16 transactivation domain (Suhr et al., 1998; Vilaboa et al., 2011). Addition of the ecdysone analog, tebufenozide, to the cell culture medium is used to initiate the transcription of mutant HTT (Aiken et al., 2004).
PC12 mHTT^Q103 cells were cultured in DMEM containing 4.5 g/I glucose, 25 mM HEPES, sodium pyruvate, and no L-glutamine (Mediatech, cat. no. 15-018-CV), supplemented with 10% (v/v) Cosmic Calf serum, 2 mM L-glutamine, 100 units/mL of penicillin-streptomycin, and 0.5 mg/ml active geneticin. Cells were grown at 37° C., 9.5% CO2, and the medium was replaced with fresh medium every 2-3 days. To induce mHTT^Q103 expression for experiments, tebufenozide, a gift from Lynne Moore and Fred H. Gage (The Salk Institute for Biological Studies, La Jolla, Calif.), was added to the medium at 200 nM final concentration from 1 mM stock in 85% ethanol.
LOC mother plates with compounds at 4 mg/ml were thawed and spun down (1000 rpm, 20° C., 1 min) prior to use. Biomek FX (Beckman Coulter) robotic liquid dispenser was used to handle all liquid transferring and mixing. […] Two fold serial dilution was performed across five daughter plates by transferring 50 μl of compounds (at […]) from the D1 plate into 50 μl of PC12 medium in daughter plate D2, mixing, and then repeating the process for the remaining three plates. Daughter plate D1 with compounds at […], daughter plate D3 with compounds at 20 μl/ml and daughter plate D5 with compounds at 5 μl/ml were then used for the screen. Assay plates were set up by seeding tebufenozide-induced PC12 mHTT^Q103 cells into 384-well black, clear-bottom plates (Corning Inc. cat. no. 3712) at a density of 7,500 cells per well in 57 μl PC12 medium without geneticin. Three microliters of compound from the daughter plates (D1, D3, and D5) were added to the assay plates for a final compound concentration of 4 μl/ml, 1 μl/ml, and 0.25 μl/ml. Four wells containing uninduced PC12 mHTT^Q103 cells and four wells containing medium only, were also included on each plate as controls. The assay plates were incubated at 37° C., 9.5% CO2 for 48 hours. Twenty microliters of 40% Alamar blue (Life Technologies cat. no. DAL1100) solution in PC12 medium was added to each well (1:10 final dilution) and the plates were incubated for an additional 12-24 hours at 37° C., 9.5% CO2. Alamar blue fluorescence was read on a fluorescence plate reader (PerkinElmer Victor3) with 530 nm excitation filter and 590 nm emission filter. Each compound concentration was tested in triplicate.
The follow-up testing of primary screen hits was performed in a similar way. Fresh powder stocks of primary hits were re-ordered from vendors, dissolved in DMSO and tested in a two-fold serial dilution across 10 wells in both tebufenozide-induced and uninduced PC12 mHTT^Q103 cells. Dose-response curves were plotted as mean±SD and fit to either four-parameter sigmoidal (for uninduced cells) or bell-shaped (induced) function using Prism (GraphPad Software).
A cascade of two assays was used, involving both a phenotypic high-throughput screening (HTS) assay and an in vitro PDI reductase assay, to identify neuroprotective PDI-inhibiting compounds. […] Alamar blue was used as a fluorescent readout for viability after 48 hours of compound treatment and mHTT^Q103 induction. […] All the candidate hit compounds were re-tested in a two-fold dilution series.

[9] = target: T2, human catalytic PDI A1 a domain (PDIa); experiment: Isothermal titration calorimetry (ITC) binding to PDIa; details: PDIa; remark: listed apart in the source
Protocol: All ITC experiments were carried out at 25° C. on MicoCal Auto-ITC200 system (GE Healthcare). Reduced PDIa was dialyzed into ITC buffer (20 mM sodium phosphate buffer pH 7.8) and loaded into a sample cell at 40 μM concentration. The compound solution was loaded into a syringe at 400 μM in the same ITC buffer with a final DMSO concentration at 0.4% (v/v). ITC titration experiments were carried out at 25° C. with 19 injections, 2 μl per injection, and 180 seconds between each injection. The reference cell power was set to 5 μcal/sec. A control experiment was performed for each compound, where each compound was titrated into buffer to account for heat released due to dilution. This background was subtracted from test data before a final dissociation constant was obtained. Data were analyzed using a one-site binding model in Origin 7.1 software. […] Gibbs free energy, ΔG, was calculated from equation ΔG=ΔH−TΔS. All other parameters, Ka, n, ΔH, ΔS, were determined directly from the titration data.
For ITC experiments with 16F16 pre-treatment, 40 μM PDIa (after dialysis into ITC buffer) was treated with 200 μM 16F16 for 12-15 hours at 4° C. Next day the whole solution was loaded into the sample cell. LOC14 at 400 μM in ITC buffer was loaded into syringe and titrated into PDIa+16F16 loaded cell. For control experiments, ITC buffer with 200 μM 16F16 was used in the cell, while 400 μM LOC14 in ITC buffer was used in the syringe.
The binding mode of LOC14 to PDIa was next investigated using isothermal titration calorimetry (ITC). ITC measures the heat released or absorbed during a biomolecular interaction. It is a direct analytical method for determining the binding and thermodynamic parameters, such as reaction stoichiometry (n), binding constants (Ka and Kd), enthalpy (ΔH), entropy (ΔS), and free energy (ΔG) of an interaction.

[10] = physchem; details: DMSO, organic solvent or mixture
[11] = first site, Table 4, read-out: ITC KD1 (two binding site)
[12] = first site, Table 5, read-out: ITC Assay KD1 (2 binding sites)
[13] = PC-12, Table 5, read-out: Cell Viability Assay EC50

Compound: CCOc1ccc2ccc(=O)oc2c1 [7-Ethoxycoumarin, reference compound]
Elimination rate constant (k) ([1]; mouse liver microsomes): 0.2341 | Intrinsic Clearance (CLint), mL/min/g liver ([1]; mouse liver microsomes): 24.58 mL/min/g liver | half-life at 0.5 μM ([1]; mouse, liver microsomes, pH 7.4, mouse liver microsomes, read-out: Half-life (t1/2)): 3 min

Compound: COC(=O)C1(C)c2[nH]c3ccccc3c2CCN1C(=O)CCl (centres unmarked) [16F16, reference compound]
EC50 [2]: 1000 nM | PDI's enzymatic activity after dilution of pre-formed complex ([3]; compound 750 μM + PDIa 500 μM, diluted 100-fold): still inhibited | inhibition of PDI's reduction of insulin without dilution [4]: able to inhibit

Compound: O=c1c2ccccc2[se]n1-c1ccccc1 [Ebselen, reference compound]
Kd [5, 11]: 5.2 nM | Kd ([5]; second site, Table 4, read-out: ITC KD2 (two binding site)): 111 nM | solubility [6]: Poor

Compound: CCOC(=O)[C@H](CCc1ccccc1)N[C@@H](C)C(=O)N1CCC[C@H]1C(=O)O [Enalapril, reference compound]
% Remaining after 2-hour incubation [7]: 4.3% | Elimination rate constant (k) [7]: 0.0201 | half-life at 1 μM ([7]; read-out: Half-life (t1/2) (converted)): 36 min

Compound: O=c1c2ccccc2sn1Cc1ccccc1 [LC-5, 2-benzylbenzo[d]isothiazol-3(2H)-one]
Kd [5, 11]: 42.7 nM | Kd [5, 12]: 42.7 nM | Kd ([5]; read-out: ITC Assay KD2 (2 binding sites), second site, Table 5): 2270 nM | Insulin Assay (either active or inactive) [3]: Active | Solubility in DMSO ([6]; Table 5): 100 mM in DMSO

Compound: O=c1c2ccccc2sn1-c1ccccc1 [LC-24]
EC50 ([8]; PC-12, read-out: Cell Viability Assay EC50): 1130 nM | Kd [5, 12]: 8.1 nM | Insulin Assay (either active or inactive) [3]: not active | solubility [10]: 50 mM (≈ 11.4 mg/mL)

Second part, led by results:

Kd ([9]; Table 4, read-out: ITC KD): 94.3 nM | Kd ([9]; Table 5, read-out: ITC Assay KD): 94.3 nM | Insulin Assay (either active or inactive) [3]: Active | Solubility in DMSO ([6]; Table 5): 50 mM in DMSO | solubility [10]: 50 mM (≈ 18.2 mg/mL)
Compound: CC(C)(C)OC(=O)NC1CCN(Cn2sc3ccccc3c2=O)CC1 [LC-8]
EC50 [8, 13]: 384 nM

Insulin Assay (either active or inactive) [3]: Active | solubility [6]: poor solubility | Solubility (words, printed in ITC Assay column) ([6]; Table 5): poor solubility | solubility [10]: < 6.75 mM
Compound: O=c1c2ccccc2sn1CN1CCN(Cn2sc3ccccc3c2=O)CC1 [LC-9, 2,2′-(piperazine-1,4-diylbis(methylene))bis(benzo[d]isothiazol-3(2H)-one)]
EC50 [8, 13]: 173 nM
